In patent publication US8673371B2, “Composition for treating vitiligo or canities comprising extract from sophora japonica as active ingredient” (Keimyung University Industry Academic Cooperation Foundation, priority 2010, dated 2014):

Key:
[1] = Electron donating ability (Blois' method, DPPH)
Description: Electron donating ability was measured according to the Blois' method (Blois 1958). Freeze-dried powder of Sophora japonica methanol extract was dissolved in DMSO at concentrations of 100, 500 and 1,000 μg/mL. After taking 1 mL to a test tube and adding 4 mL of 4×10^−4 M DPPH solution, followed by agitating in a water bath of 60° C. for 10 seconds and allowing to stand at room temperature for 20 minutes, absorbance was measured at 525 nm. For the non-extract-treated group, 1 mL of methanol was added instead of the sample. Electron donating ability was calculated from the difference in absorbance relative to the non-treated group. The synthetic antioxidant BHT was used as positive control.

[2] = test system: TRP-2 mRNA; assay: RT-PCR, expression of TRP-2 mRNA; format: cell-based, C57BL/6 mouse; settings: 12.5 μg/mL, Melan-a cells
Description: (§1) Total RNA was prepared using Trizol reagent (Invitrogen, Caylsbad, Calif.) according to the manufacturer's instructions. 5 μg of total RNA was subjected to reverse transcription with 8 μL of M-MLV RT 5× buffer, 3 μL of 10 mM dNTPs, 0.45 μL of 10,000 U RNase inhibitor, 0.3 μL of 50,000 U M-MLV reverse transcriptase (Promega, Madison, USA) and 1.5 μL of 50 pmol/μL oligo dT (Bioneer, Daejeon, Korea). Single-stranded cDNA was amplified by PCR in a reaction solution containing 4 μL of 5× green Go Taq flexi buffer, 0.4 μL of 10 mM dNTPs, 0.1 μL of 500 U Taq polymerase, 1.2 μL of 25 mM MgCl2 (Promega, Madison, USA) and 0.4 μL of 20 pmol/μL sense and antisense primers of tyrosinase, […] or β-actin. Sequences of the primers used in the PCR and expected PCR product size are shown in Table 1. β-actin was used as internal standard (51° C., 30 cycles), and test substances were tyrosinase (56° C., 28 cycles), TRP-1 (56° C., 28 cycles), TRP-2 (64° C., 28 cycles) and MITF-M (54° C., 30 cycles). The PCR product was analyzed by electrophoresis on 1.2% agarose gel.

[3] = test system: TRP-1 mRNA; assay: RT-PCR, expression of TRP-1 mRNA; format: cell-based, C57BL/6 mouse; settings: 12.5 μg/mL, Melan-a cells, not significant
Description: as §1

[4] = test system: tyrosinase mRNA; assay: RT-PCR, expression of tyrosinase mRNA; format: cell-based, C57BL/6 mouse; settings: 12.5 μg/mL, Melan-a cells
Description: as §1

[5] = target: T1, tyrosinase (Mus musculus, UniProt P11344); assay: Activity of cell-extracted tyrosinase; format: biochemical, C57BL/6 mouse; settings: 12.5 μg/mL, Melan-a cell extract
T1 construct: the cells were lysed by adding 200 μL of 1% Triton X-100 solution; endogenous in cells; host or cells: Melan-a cells (immortalized C57BL/6 mouse melanocytes)
T1 sequence (P11344 19-533): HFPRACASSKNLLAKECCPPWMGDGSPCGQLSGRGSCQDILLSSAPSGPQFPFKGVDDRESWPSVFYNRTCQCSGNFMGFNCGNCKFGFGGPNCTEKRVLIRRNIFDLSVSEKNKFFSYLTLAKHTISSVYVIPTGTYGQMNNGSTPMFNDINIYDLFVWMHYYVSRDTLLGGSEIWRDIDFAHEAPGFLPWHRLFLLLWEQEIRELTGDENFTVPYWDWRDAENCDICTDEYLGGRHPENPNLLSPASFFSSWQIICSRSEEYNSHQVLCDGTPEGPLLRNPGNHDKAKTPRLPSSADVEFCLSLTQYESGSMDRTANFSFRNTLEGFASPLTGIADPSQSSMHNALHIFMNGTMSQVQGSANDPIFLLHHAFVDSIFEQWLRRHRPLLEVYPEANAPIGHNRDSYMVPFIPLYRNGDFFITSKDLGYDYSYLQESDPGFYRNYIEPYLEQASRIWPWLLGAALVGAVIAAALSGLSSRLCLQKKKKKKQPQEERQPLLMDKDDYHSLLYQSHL
Description: After washing with PBS and lysing by adding 200 μL of 1% Triton X-100, the lysed cells were transferred to an e-tube and vortexed on ice with 10-minute intervals. After about 1 hour, centrifuge was carried out at 4° C. and 14,000 rpm for 20 minutes. 50 μL of the supernatant was mixed with 49 μL of 0.1 M phosphate buffer (pH 6.8) and 1 μL of Sophora japonica methanol extract at various concentrations (6.25, 12.5, 25 and 50 μg/mL). After allowing to stand for 1 hour, 100 μL of L-DOPA was added. Then, after incubation in a 10% CO2 incubator at 37° C. for 60 minutes, absorbance was measured at 490 nm. IBMX was used as positive control.

[6] = test system: MITF-M mRNA; assay: RT-PCR, expression of MITF-M mRNA; format: cell-based, C57BL/6 mouse; settings: 12.5 μg/mL, Melan-a cells
Description: as §1

[7] = test system: tyrosinase; assay: Intracellular tyrosinase activity; format: cell-based, C57BL/6 mouse; settings: 12.5 μg/mL, Melan-a cells
Description: 4-5. […] Then, after removing the medium and washing with PBS, the cells were lysed by adding 200 μL of 1% Triton X-100 solution. The lysed cells were transferred to an e-tube and vortexed on ice with 10-minute intervals. After about 1 hour, centrifuge was carried out at 4° C. and 14,000 rpm for 20 minutes. The supernatant was subjected to tyrosinase activity measurement. Absorbance was measured using a protein assay solution (Bio-Rad, USA), and the protein quantity was calculated. Cell extract containing 40 μg of protein was mixed with the test substance to a total volume of 100 μL. After adding 100 μL of L-DOPA, followed by incubation in a 10% CO2 incubator at 37° C. for 60 minutes, absorbance was measured at 490 nm. IBMX was used as positive control.

[8] = test system: Melan-a cells; settings: mouse, 48 h
Description: Melan-a cells, which are immortalized cells derived from C57BL/6 mouse, were cultured in a 37° C., 10% CO2 incubator using RPMI-1640 medium containing 10% fetal bovine serum (FBS) 1% penicillin/streptomycin (P/S) and 200 nM 12-O-tetradecanoylphorbol 13-acetate (TPA).
The MTT assay is a typical technique of measuring cell viability. Upon absorption into cells, 3-(4,5-Dimethylthiazol-2-yl)-2,5-diphenyltetrazolium bromide (MTT) is reduced by succinate dehydronase in mitochondria to formazan. Thus, accumulation of this substance in cells is a measure of mitochondrial activity or, in a broader sense, cell activity. Melan-a cells were stabilized in RPMI-1640 medium containing 10% FBS, 1% P/S and 200 nM TPA in a 10% CO2 incubator at 37° C. for 48 hours before carrying out experiment. The Melan-a cells were seeded on a 96 well plate (0.5×10^4 cells/well) and cultured in a 10% CO2 incubator at 37° C. for 24 hours. […] After dissolving the cells in a plate shaker for 15 minutes, absorbance was measured at 540 nm using an ELISA reader. Cell proliferation was calculated according to the following equation: Cell proliferation (%)=(Absorbance of extract-treated group/Absorbance of non-extract-treated group)×100.

[9] = test system: Melan-a cells; assay: Melanin producing ability; format: cell-based, C57BL/6 mouse; settings: 12.5 μg/mL
Description: Then, after treating again with the Sophora japonica methanol extract, the cells were further cultured for 72 hours. After dissolving melanin with 1 N NaOH solution, absorbance was measured at 490 nm. IBMX was used as positive control.

Compound	Electron donating ability, concentration dependence ([1]; 100, 500 and 1,000 μg/mL)	Electron donating ability ([1]; at 1,000 μg/mL)	Higher expression of TRP-2 mRNA compared with the control [2]	Higher expression of TRP-1 mRNA compared with the control [3]	Higher expression of tyrosinase mRNA compared with the control [4]	Higher activity of cell-extracted tyrosinase compared with the control [5]	Higher expression of MITF-M mRNA compared with the control [6]	Higher intracellular tyrosinase activity compared with the control [7]	Maximum permissible level (MPL) [8]	Higher melanin content compared with the control [9]
Cc1cc(C(C)(C)C)c(O)c(C(C)(C)C)c1 [BHT, 2,6-di-tert-butylated hydroxytoluene]	positive (+) concentration-dependent relationship	85.0%								
CC(C)Cn1c(=O)n(C)c(=O)c2[nH]cnc21 [IBMX, 3-isobutyl-1-methylxanthine]			9%	2%	0.31%	21.2%	74%	22.2%	12.5 µg/mL	16.7%
